Test results as given in US20240342235A1, “COMPOSITION FOR TREATING INFLAMMATORY BOWEL DISEASE, COMPRISING COMBINED EXTRACT OF ISATIDIS FOLIUM AND JUGLANS MANDSHURICA” (MTHERA PHARMA CO., LTD., priority 2021, published 2024).

How the values were obtained:
Format in all cases: in vivo, C57BL/6N male mice
[1] = tested on: inflammatory bowel disease animal model (2.5% DSS); experiment: Body weight change in DSS-treated mice (Example 1); settings: 100 mg/kg oral, 2.5% DSS in drinking water, 7 days; body weight before DSS = 100%; negative control 89.31±2.75%, normal 105.64±0.54%
Method: 6-week-old C57BL/6N male mice were purchased and pre-bred for one week, and then they were randomly divided into a total of 5 groups of 8 mice per group, and an experiment was conducted as shown in Table 1 below. 2.5% dextran sulfate sodium (DSS) diluted in sterile water was administered in drinking water for a total of 8 days, and 5-aminosalicylic acid (5-ASA), which is a therapeutic agent for inflammatory bowel disease, or the combined extract of the present invention was orally administered for a total of 10 days from 2 days prior to the day of administration with DSS. [table] Body weight loss is a representative symptom of inflammatory bowel disease (Scientific Reports volume 10, Article number: 3829 (2020)). The body weight of the mouse was measured once a day at the same time (10 am) using an electronic scale. The rate of change in body weight of each group was obtained by summing the body weight of 8 mice per group and then dividing by 8. The average body weight immediately before the start of administration of 2.5% DSS in drinking water was set as 100%, and the average body weight of each group was calculated every day to measure the rate of change in body weight. Significance was verified by performing a Student's T test for each group between the negative control group to which 2.5% DSS was administered in drinking water and the experimental group.

[2] = tested on: inflammatory bowel disease animal model (2.5% DSS); experiment: Length of large intestine in DSS-treated mice (Example 2); settings: 100 mg/kg oral, last day of administration, negative control 5.44±0.12 cm, normal 7.48±0.30 cm
Method: 6-week-old C57BL/6N male mice were purchased and pre-bred for one week, and then they were randomly divided into a total of 5 groups of 8 mice per group, and an experiment was conducted as shown in Table 1 below. 2.5% dextran sulfate sodium (DSS) diluted in sterile water was administered in drinking water for a total of 8 days, and 5-aminosalicylic acid (5-ASA), which is a therapeutic agent for inflammatory bowel disease, or the combined extract of the present invention was orally administered for a total of 10 days from 2 days prior to the day of administration with DSS. It is known that there is a sufficient correlation between the shortened large intestine and histological changes, and the length of the large intestine is commonly used as a morphological parameter of the degree of inflammation. Therefore, in order to evaluate the length of the large intestine of the mouse according to the administration of the combined extract of the present invention, the mouse of Example 1 was sacrificed on the last day of each administration, and then the length of the large intestine was measured, and the average length is shown in FIG. 2.

[3] = tested on: inflammatory bowel disease-induced mouse model (2.5% DSS); experiment: Disease activity index (DAI) evaluation II, combined vs single extracts (Example 5); settings: 100 mg/kg oral, 2.5% DSS for 5 days, 5 days after administration
Method: In order to evaluate whether the combined extract has a synergistic effect compared to that of individual use of an extract of […] folium and an extract of Juglans mandshurica fruits, 6-week-old C57BL/6N male mice were purchased and pre-bred for one week, and then they were randomly divided into a total of 6 groups of 7 mice per group, and an experiment was conducted as shown in Table 3 below. [table] 2.5% dextran sulfate sodium (DSS) diluted in sterile water was administered in drinking water for a total of 5 days, and 5-aminosalicylic acid (5-ASA), which is a therapeutic agent for inflammatory bowel disease, an extract of […] folium alone, an extract of Juglans mandshurica fruits alone, or the combined extract of the present invention was orally administered for a total of 7 days from 2 days prior to the day of administration with DSS. In addition, the disease activity index was measured in the same manner as the method used in Table 2 above, and the results 5 days after administration are shown in FIG. 5.

myeloperoxidase (MPO) = experiment: Myeloperoxidase (MPO) activity in large intestine tissue, Mouse MPO ELISA kit (Example 6); settings: 100 mg/kg oral for 7 days, 2.5% DSS for 5 days
Method: MPO is an enzyme mainly found in neutrophils, and the activity of MPO in tissues is an indicator of neutrophil infiltration, so it is an indicator of inflammatory response and correlates with the level of intestinal damage caused by inflammatory colitis. Therefore, in order to measure the activity of MPO according to the administration of the combined extract of the present invention, an experiment was conducted as shown in Table 3 of Example 5 above.
2.5% dextran sulfate sodium (DSS) diluted in sterile water was administered in drinking water for a total of 5 days, and 5-aminosalicylic acid (5-ASA), which is a therapeutic agent for inflammatory bowel disease, an extract of Isatidis folium alone, an extract of Juglans mandshurica fruits alone, or the combined extract of the present invention was orally administered for a total of 7 days from 2 days prior to the day of administration with DSS. In order to measure the activity of MPO, the Mouse MPO ELISA kit (HK210-02, Hycult biotechnology) was used. […] The homogenized sample was centrifuged at 1500×g for 15 minutes to obtain a supernatant, and then the activity of MPO was measured using the supernatant.

[4] = tested on: inflammatory bowel disease animal model (2.5% DSS); experiment: Weight and length of spleen (spleen ratio) in DSS-treated mice (Example 3); settings: 100 mg/kg oral, last day of administration
Method: 6-week-old C57BL/6N male mice were purchased and pre-bred for one week, and then they were randomly divided into a total of 5 groups of 8 mice per group, and an experiment was conducted as shown in Table 1 below.
2.5% dextran sulfate sodium (DSS) diluted in sterile water was administered in drinking water for a total of 8 days, and 5-aminosalicylic acid (5-ASA), which is a therapeutic agent for inflammatory bowel disease, or the combined extract of the present invention was orally administered for a total of 10 days from 2 days prior to the day of administration with DSS.
A representative symptom that can occur in relation to inflammatory bowel disease includes splenitis. As such, when the spleen becomes inflamed, the size of the spleen is increased by its nature (Nutrients 2019, 11 (11), 2776), and in fact, it is known that the spleen becomes enlarged in the model of IBD induced after DSS treatment (Biol. Pharm. Bull. 43, 450-457 (2020)). Therefore, in order to evaluate the level of inflammation in the spleen of mice according to the administration of the combined extract of the present invention, the mouse of Example 1 was sacrificed on the last day of each administration, and then the weight and length of the spleen of each group compared to those of the negative control group were measured, and the spleen ratio is shown.

Structure (SMILES): Nc1ccc(O)c(C(=O)O)c1 [5-ASA, 5-aminosalicylic acid]
- rate of change in body weight [1]: 91.38±2.01%
- length of the large intestine [2]: 5.28±0.08 cm
- disease activity index compared to negative control group [3]: decreased
- decrease of the activity of MPO compared to negative control group (myeloperoxidase (MPO)): 9.6%
- weight and length of the spleen compared to negative control group [4]: decreased
